Results as given in PubChem BioAssay (NCI).
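Each compound was tested at five concentrations against cells in 96-well plates for 48 hours. Here, GI50 denotes the concentration required for 50% inhibition of growth. At the TGI there is no net growth.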

Experiments:
Assay in all cases: NCI tumour cell line growth inhibition, 48 h
RPMI-8226 leukemia = system: RPMI-8226 leukemia
UACC-257 melanoma = system: UACC-257 melanoma
SF-268 CNS = system: SF-268 CNS
CCRF-CEM leukemia = system: CCRF-CEM leukemia
SR leukemia = system: SR leukemia
SNB-75 CNS = system: SNB-75 CNS
UACC-62 melanoma = system: UACC-62 melanoma
HCT-116 colon = system: HCT-116 colon
COLO 205 colon = system: COLO 205 colon
NCI-H226 lung = system: NCI-H226 lung

Structure (SMILES)	GI50 (RPMI-8226 leukemia)	TGI (RPMI-8226 leukemia)	GI50 (UACC-257 melanoma)	TGI (UACC-257 melanoma)	GI50 (SF-268 CNS)	TGI (SF-268 CNS)	GI50 (CCRF-CEM leukemia)	TGI (CCRF-CEM leukemia)	GI50 (SR leukemia)	TGI (SR leukemia)	GI50 (SNB-75 CNS)	TGI (SNB-75 CNS)	GI50 (UACC-62 melanoma)	TGI (UACC-62 melanoma)	GI50 (HCT-116 colon)	TGI (HCT-116 colon)	GI50 (COLO 205 colon)	TGI (COLO 205 colon)	GI50 (NCI-H226 lung)	TGI (NCI-H226 lung)
COc1ccc(F)cc1-c1ccnc2[nH]c(C3=CCN(C4CCC(CC(=O)O)CC4)CC3)cc12 (stereo not given)	0.235 µM	0.786 µM	0.307 µM	> 100 µM	0.144 µM	17.7 µM	0.13 µM	> 100 µM	0.0295 µM	> 100 µM	0.13 µM	0.381 µM	0.113 µM	0.371 µM	0.163 µM	> 100 µM	0.0747 µM	0.561 µM	–	–
COC(=O)[C@@H](C)C[C@H](Cc1ccccc1)NC(=O)c1csc([C@@H](C[C@H](C(C)C)N(C)C(=O)[C@@H](NC(=O)[C@H]2CCCCN2C)C(C(F)(F)F)C(F)(F)F)OC(C)=O)n1	0.059 µM	3.22 µM	–	–	0.108 µM	> 16.7 µM	0.0539 µM	9.05 µM	0.00743 µM	> 16.7 µM	–	–	0.0154 µM	> 16.7 µM	0.057 µM	> 16.7 µM	0.0658 µM	0.556 µM	3.94 µM	> 16.7 µM
CCCCCC/C(CC(=O)CCC(=O)NCCc1ccccc1)=N\Nc1ccc([N+](=O)[O-])cc1[N+](=O)[O-]	–	81.7 µM	–	> 100 µM	–	> 100 µM	–	60.6 µM	–	67.7 µM	–	–	–	> 100 µM	–	> 100 µM	–	> 100 µM	–	> 100 µM
COc1ccc(/C=C2/CSC/C(=C/c3ccc(OC)c(OC)c3)C2=O)cc1OC	–	–	–	16.9 µM	–	18.4 µM	–	–	–	–	–	> 100 µM	–	3.32 µM	–	2.28 µM	–	6.28 µM	–	7.15 µM
COC1CC(n2cc(F)c(N)nc2=O)OC1CO (stereo not given)	–	> 100 µM	–	> 100 µM	–	> 100 µM	–	> 100 µM	–	–	–	> 100 µM	–	–	–	–	–	> 100 µM	–	> 100 µM
CCCCOP1(=O)CC(C)=C(Cl)C(C)(OC)C1 (stereo not given)	–	–	–	> 100 µM	–	> 100 µM	–	98.7 µM	–	89.3 µM	–	> 100 µM	–	> 100 µM	–	> 100 µM	–	> 100 µM	–	> 100 µM
O/N=C1\C(=C\c2ccc3c(c2)OCCO3)CCCC1C(NO)c1ccc2c(c1)OCCO2 (stereo not given)	–	> 100 µM	–	49.2 µM	–	32 µM	–	48.9 µM	–	55.5 µM	–	72.6 µM	–	31.7 µM	–	40.4 µM	–	98.4 µM	–	–
N#C/C(=C1\OC(N)=C(c2ccc(Cl)cc2)C1=O)c1ccc(Cl)cc1	–	50 µM	–	29 µM	–	> 100 µM	–	73.5 µM	–	54.7 µM	–	32.4 µM	–	27.5 µM	–	32.4 µM	–	32.8 µM	–	–
Oc1ccc(O)c(-n2cccn2)c1-n1cccn1	–	> 100 µM	–	–	–	> 100 µM	–	> 10 µM	–	–	–	> 100 µM	–	> 100 µM	–	–	–	90.1 µM	–	–
